Several values for one entry are separate records, joined by “and”; a condition that tells them apart may be missing. Equal entries are not always repeated. Where two headings read alike, the source gives them in different places.
Assays:
[1] = target: T1, human NMT1 (HsNMT1) (Homo sapiens, UniProt P30419); assay: HsNMT1 IC50, fluorescence-based assay detecting CoA with CPM; type: biochemical
T1 sequence (P30419 1-496): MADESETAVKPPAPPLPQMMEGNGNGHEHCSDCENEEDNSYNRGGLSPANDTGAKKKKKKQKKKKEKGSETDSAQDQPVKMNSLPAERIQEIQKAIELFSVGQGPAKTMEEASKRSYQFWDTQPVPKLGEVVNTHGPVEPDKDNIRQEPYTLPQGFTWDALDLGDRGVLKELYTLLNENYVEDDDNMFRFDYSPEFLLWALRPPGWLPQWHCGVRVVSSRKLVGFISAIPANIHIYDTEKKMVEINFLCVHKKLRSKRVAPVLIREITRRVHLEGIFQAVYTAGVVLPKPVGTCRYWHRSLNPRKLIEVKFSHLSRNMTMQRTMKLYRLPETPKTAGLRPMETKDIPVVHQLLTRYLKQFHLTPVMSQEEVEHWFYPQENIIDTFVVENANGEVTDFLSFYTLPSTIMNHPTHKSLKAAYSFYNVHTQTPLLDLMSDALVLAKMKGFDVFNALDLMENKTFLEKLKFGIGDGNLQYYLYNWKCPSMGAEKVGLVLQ
Procedure: The IC50 values for human NMT1 (HsNMT1) of four Example compounds of the invention described above (Examples 1-4) and six comparative examples (Comparative Examples 1, 2, 3, 4, 5 and 6) were measured using a sensitive fluorescence-based assay based on detection of CoA by 7-diethylamino-3-(4-maleimido-phenyl)-4-methylcoumarin, as described in Goncalves, V., et al., Analytical Biochemistry, 2012, 421, 342-344 and Goncalves, V., et al., J. Med. Chem, 2012, 55, 3578.

[2] = test system: MRC5 cells; assay: Metabolic activity assay (MTS assay), MRC5; type: cell-based, human
Procedure: (§1) Example NMT inhibitors of the present invention were tested for activity in an in vitro metabolic activity assay using the human cell line MRC5. Comparative Examples 1, 2, 3, 4, 5 and 6 were also tested in the same metabolic activity assay. Compounds having activity in inhibiting metabolic activity in the assay are expected to be useful as agents for preventing and/or treating cancer, by virtue of being inhibitors of human NMT1 and/or NMT2.
MRC5 cells (obtained from Dr David Mann's group, Imperial College; cell type: fibroblasts cells which derive from normal lung tissue) were grown in DMEM media (supplemented with 10% FBS) and were seeded in a 96-well plate, 24 h prior to treatment. Cell suspensions were prepared by adjusting the cell density to the appropriate concentration (as stated in the Table 1 below) and 50 μL of the cell suspension was transferred to wells B-G in columns 2-11 of a 96-well plate.
100 μL of growth media (DMEM media) containing 0.2% DMSO was added to wells B-G in columns 2 and 11 as positive controls, and 100 μl of growth media containing Puromycin (3 μg/mL; final concentration in the plate 2 μg/mL) was added to wells B-G in column 3 as a negative control. Seven concentrations of NMT inhibitor stock solution were prepared for each Example (Example 1 and 2) and each Comparative Example (Comparative Examples 1, 2, 3, 4, 5 and 6) tested (same final percentage of DMSO, dilution factor=3 starting from 15 μM or 150 μM). 100 μL of inhibitor stock solution was added to wells B-G in columns 4-10 of a 96-well plate (final concentration of Example compound or Comparative Example compound in the plate starting from 10 μM or 100 μM; total volume in each well was 150 μL). The plate was incubated at 37° C. with 5% CO2 level.
After 72 h, 20 μL MTS reagent (Promega, prepared according to the supplier protocol) was added to each well of the 96-well plate. The plate was incubated at 37° C. for 2 h and the absorbance per well was measured at 490 nm with an EnVision plate reader. The average absorbance value of the negative control (Puromycin-treated cells) was subtracted from each value and the metabolic activity was calculated as a percentage relative to the positive control (DMSO-treated cells). EC50 values were calculated using GraphPad.

[3] = test system: MDA MB 231 cells; assay: CellTiter-Blue assay, MDA MB 231; type: cell-based, human
Procedure: as §1, with “in” for “in an”, “CellTiter-Blue® assays” for “metabolic activity assay”, “MDA MB 231, LY 12318, or BL-41.” for “MRC5.”, “1” for “1, 2, 3, 4, 5”, “2” for “6”, “assays.” for “metabolic activity assay.”
(§2) MDA MB 231 cells (obtained from Professor Eric Aboagye, Hammersmith Hospital; cell type: triple negative breast cancer) were grown in low glucose DMEM in 5% CO2 media (supplemented with 10% FBS); LY 12318 cells (obtained from Dr Martin Janz, Max Delbrueck Center; cell type: B cell lymphoma patient derived xenograft) were grown in DMEM media (supplemented with 10% FBS); and BL-41 cells (obtained from Cell Services at the Crick Institute; cell type: Burkitt's Lymphoma) were grown in RPMI-1640 media in 5% CO2 (supplemented with 10% FBS). The MDA MB 231 cells, LY 12318 cells or BL-41 cells were seeded in 96-well plates, 24 h prior to treatment. Cell suspensions were prepared by adjusting the cell density to the appropriate concentration (as stated in the Table 2 below) and 50 μL of the cell suspension was transferred to wells B-G in columns 2-11 of a 96-well plate.
(§3) Twenty-four hours later, 50 μl of growth media (low glucose DMEM in 5% CO2 media supplemented with 10% FBS for MDA MB 231 cells; DMEM media in 5% CO2 supplemented with 10% FBS for LY 12318 cells; or RPMI-1640 media supplemented with 10% FBS for BL-41 cells) containing 0.0004% DMSO (positive control), a mix of Puromycin and Staurosporine (negative controls, final concentration 2 μg/mL and 1 μM respectively) or different concentrations of each Example (Example 1 and 2) or each Comparative Example (Comparative Example 1 and 2) (dilution factor=3, starting at […], final concentration in the plate starting from 10 μM) were prepared and added to a well of the 96-well plate. The plate was incubated at 37° C. with 5% CO2 level.
(§4) 72 hours later, 20 μl/well CellTiter-Blue® (G8081, Promega) were added to the plates according to the manufacturer's protocol, the plate was incubated at 37° C. for 4 h for MDA MB 231 cells and BL-41 cells, or 3 h for LY 12318 cells, followed by measuring the absorbance per well at 570 nm using an EnVision plate reader. The negative control values were subtracted from every value. The metabolic activity was calculated as a percentage relative to the positive control. The EC50 values were calculated using GraphPad Prism.

[4] = test system: LY 12318 cells; assay: CellTiter-Blue assay, LY 12318; type: cell-based, human; conditions: 72 h, read-out: LY12318 EC50
Procedure: as §1, with “in” for “in an”, “CellTiter-Blue® assays” for “metabolic activity assay”, “MDA MB 231, LY 12318, or BL-41.” for “MRC5.”, “1” for “1, 2, 3, 4, 5”, “2” for “6”, “assays.” for “metabolic activity assay.”
as §2, §3, §4

[5] = test system: BL-41 cells; assay: CellTiter-Blue assay, BL-41; type: cell-based, human
Procedure: as §1, with “in” for “in an”, “CellTiter-Blue® assays” for “metabolic activity assay”, “MDA MB 231, LY 12318, or BL-41.” for “MRC5.”, “1” for “1, 2, 3, 4, 5”, “2” for “6”, “assays.” for “metabolic activity assay.”
as §2, §3, §4

[6] = Rat hepatocyte half life; type: in vitro ADME, Sprague-Dawley rats; conditions: pooled cryopreserved rat hepatocytes, pH 7.4; pooled male Sprague-Dawley rat hepatocytes; read-out: Rat Hepatocyte t ½
Procedure: (§5) Example Compound 1 was tested for metabolic stability in rat metabolic assays using hepatocytes derived from pooled male Sprague-Dawley rats. Comparative Examples 2, 3 and 4 were also tested in the same assay. Compounds having good metabolic stability in the assay are expected to be especially useful as agents for preventing and/or treating cancer, by having a long half-life in human patients.
Frozen pooled rat hepatocytes obtained from LifeTechnologies were thawed and purified according to the manufacturer's instructions. The test compound (4 mM) in DMSO was diluted with acetonitrile to provide a 100 μM sub-stock then further diluted with pH7.4 Krebs-Henseleit buffer supplemented with CaCl2), NaHCO3, HEPES, fructose and glycine) to provide a 2 μM working solution. 25 μL of working solution was incubated at 37° C., treated with 25 μL of rat hepatocyte suspension (containing 1×10^6 cells/mL) and incubated at 37° C. with 5% CO2 level at 95% relative humidity. Wells were incubated for an appropriate time (0, 15, 30, 45, 60 and 75 min) then quenched with 250 μL of acetonitrile containing reference standards diltiazem, 7-ethoxycoumarin and propranolol). The plates were shaken, sonicated for 5 min then cooled to 4° C. until all sampling was complete. All plates were centrifuged at 4000 rpm for 20 min to pellet the debris. 110 μl supernatant was diluted 110 μL water and quantitated using LC-MS/MS.
The results were used to calculate the % Remaining of the test compound at time point t=100×˜[(AUC at time point t)/(AUC at T=0)]. A linear regression curve was fitted to a plot of natural logarithm (In) of AUC against time. The T-half (min)=0.693/slope

[7] = Human liver microsomes half life; type: in vitro ADME; conditions: pH 7.4, read-out: Human liver microsomes t ½
Procedure: as §5, with “an assay” for “rat metabolic assays”, “human liver microsomes.” for “hepatocytes derived from pooled male Sprague-Dawley rats.”, “3, 4, 5” for “3”, “6” for “4”, “patients” for “patients.”
Frozen human liver microsomes obtained from Corning, USA (cat #452117) were thawed and diluted with 100 mM of pH 7.4 phosphate buffer to give a 1 mg/ml solution. An NADPH regeneration system (NRS) was prepared as a solution containing 13 mM NADP, 33 mM glucose-6-phosphate, 33 mM MgCl2 and 4U/mL glucose-6-phosphate dehydrogenase in 100 mM of pH7.4 phosphate buffer. The test compound (4 mM) in DMSO was diluted with acetonitrile to provide a 100 μM sub-stock then further diluted with 100 mM of pH7.4 phosphate buffer to provide a 2 μM working solution. The liver microsome solution and NRS were incubated at 37° C. before use. To each well of the test plate was dispensed 60 μL of buffer, 50 μL of test compound solution and 10 μL of NRS. A reaction was initiated by addition of 40 μL of liver microsome solution. Wells were incubated for an appropriate time (0, 5, 10, 20, 30 and 60 min) then quenched with 300 μL of acetonitrile containing reference standards atenolol, propranolol, diclofenac, verapamil). All plates were centrifuged at 3500 rpm for 20 min at 15° C. to pellet the debris. 110 μL supernatant was diluted 110 μL water and quantitated using LC-MS/MS.
The results were used to calculate the % Remaining of the test compound at time point t=100×˜[(AUC at time point t)/(AUC at T=0)]. A linear regression curve was fitted to a plot of natural logarithm (In) of AUC against time. The T-half (min)=0.693/slope.

For `Cc1c(CCOc2cc(F)ccc2-c2ccc3ncc(CCN)n3c2)c(C(=O)N(C)C)nn1C` [Comparative Example 1, 4-(2-{2-[3-(2-aminoethyl)imidazo[1,2-a]pyridin-6-yl]-5-fluorophenoxy}ethyl)-N,N,1,5-tetramethyl-1H-pyrazole-3-carboxamide], the IC50 [1] was 2 nM, the EC50 ([2]; Homo sapiens, MRC5, 72 h) was 450 nM and the EC50 ([3]; Homo sapiens, MDA-MB-231, 72 h) was 285 nM. The EC50 ([4]; Homo sapiens) was 246 nM and the EC50 ([5]; Homo sapiens, BL-41, 72 h) was 91 nM.
For `CNC(=O)c1nn(C)c(C)c1CCOc1cc(Cl)ccc1-c1ccc2ncc(CCN)n2c1` [Example Compound 2, 4-(2-{2-[3-(2-aminoethyl)imidazo[1,2-a]pyridin-6-yl]-5-chlorophenoxy}ethyl)-N,1,5-trimethyl-1H-pyrazole-3-carboxamide], the EC50 ([2]; 72 h) was 37 nM, the EC50 ([2]; Homo sapiens, MRC5, 72 h) was under 40 nM and the EC50 ([3]; 72 h) was 45 nM. For the same compound, the EC50 ([3]; Homo sapiens, MDA-MB-231, 72 h) was under 70 nM, the EC50 [4] was 69 nM and the EC50 ([4]; Homo sapiens) was under 70 nM. It also gave an EC50 ([5]; 72 h) of 24 nM.
For `Cc1c(CCOc2cc(F)ccc2-c2ccc3ncc(CN(C)C)n3c2)c(C(=O)N(C)C)nn1C` [Comparative Example 4, 4-[2-(2-{3-[(dimethylamino)methyl]imidazo[1,2-a]pyridin-6-yl}-5-fluorophenoxy)ethyl]-N,N,1,5-tetramethyl-1H-pyrazole-3-carboxamide], the IC50 [1] was ~1 nM and 1 nM, the EC50 ([2]; Homo sapiens, MRC5, 72 h) was 63 nM and the half-life at 1 µM [6] was 32 min. For the same compound, the half-life at 0.625 µM [7] was 12 min.
Work on `Cc1c(CCOc2c(-c3ccc4ncc(CCN)n4c3)ccc(Cl)c2F)c(C(=O)N(C)C)nn1C` [Example Compound 3, 4-(2-{6-[3-(2-aminoethyl)imidazo[1,2-a]pyridin-6-yl]-3-chloro-2-fluorophenoxy}ethyl)-N,N,1,5-tetramethyl-1H-pyrazole-3-carboxamide] yielded an IC50 [1] of 4.2 nM.
Work on `CNC(=O)c1nn(C)c(C)c1CCOc1c(-c2ccc3ncc(CCN)n3c2)ccc(Cl)c1F` [Example Compound 4, 4-(2-{6-[3-(2-aminoethyl)imidazo[1,2-a]pyridin-6-yl]-3-chloro-2-fluorophenoxy}ethyl)-N,1,5-trimethyl-1H-pyrazole-3-carboxamide] yielded an IC50 [1] of 6.3 nM.
Work on `Cc1nn(C)c(C)c1CCOc1c(F)cccc1-c1ccc2c(c1)c(CN(C)C)nn2C` [Comparative Example 6, 1-(5-(3-fluoro-2-(2-(1,3,5-trimethyl-1H-pyrazol-4-yl)ethoxy)phenyl)-1-methyl-1H-indazol-3-yl)-N,N-dimethylmethanamine] yielded an EC50 ([2]; Homo sapiens, MRC5, 72 h) of 38 nM and a half-life at 0.625 µM [7] of 4 min.

Reference: patent US12304909B2, “Compounds and their use in therapy” (IMPERIAL COLLEGE INNOVATIONS LIMITED, priority 2018, dated 2025)
